Source: ChEMBL document CHEMBL3885881, “DrugMatrix”

Organism: Rattus norvegicus
Assay: DrugMatrix - Regimen: Daily Repeat
Type: toxicity, organism-based, Sprague-Dawley
Parameters: regimen Daily Repeat, gender Male, age 6-8 weeks
Settings: in vivo, po, route oral GAVAGE, vehicle .5 % CMC; for ABSOLUTE BASOPHIL / ABSOLUTE EOSINOPHIL / ABSOLUTE LYMPHOCYTE / ABSOLUTE MONOCYTE / ABSOLUTE SEGMENTED NEUTROPHIL / BASOPHIL / EOSINOPHIL / ERYTHROCYTE COUNT / HEMATOCRIT / HEMOGLOBIN / LEUKOCYTE COUNT / LYMPHOCYTE / MEAN CORPUSCULAR HEMOGLOBIN / MEAN CORPUSCULAR HEMOGLOBIN CONCENTRATION / MEAN CORPUSCULAR VOLUME / MONOCYTE / NEUTROPHIL / NUCLEATED RED BLOOD CELLS / PLATELET COUNT: tissue Blood; for ALANINE AMINOTRANSFERASE / ALBUMIN / ALKALINE PHOSPHATASE / ASPARTATE AMINOTRANSFERASE / BLOOD UREA NITROGEN / CARBON DIOXIDE / CHLORIDE / CHOLESTEROL / CREATINE PHOSPHOKINASE / CREATININE / GLUCOSE / LACTATE DEHYDROGENASE / LIPASE / PHOSPHORUS / POTASSIUM / SODIUM / TOTAL BILIRUBIN / TOTAL PROTEIN / URIC ACID: tissue Plasma
[1] = 50 mg/kg, 120 h, dose level Low, time 5 day
[2] = 1500 mg/kg, 72 h, dose level High, time 3 day
[3] = 1500 mg/kg, 120 h, dose level High, time 5 day

`CNC(=C[N+](=O)[O-])NCCSCc1ccc(CN(C)C)o1` [RANITIDINE] was tested, and the “ABSOLUTE BASOPHIL” value [1] was 0 CELLS/uL, the “ABSOLUTE EOSINOPHIL” value [1] was 64.67 CELLS/uL and the “ABSOLUTE LYMPHOCYTE” value [1] was 14230.33 CELLS/uL. For the same molecule, the “ABSOLUTE MONOCYTE” value [1] was 0 CELLS/uL, the “ABSOLUTE SEGMENTED NEUTROPHIL” value [1] was 1138.33 CELLS/uL and the BASOPHIL [1] was 0%. The EOSINOPHIL [1] was 0.33%, the “ERYTHROCYTE COUNT” value [1] was 5.36 x10E6/uL and the HEMATOCRIT [1] was 34.53%. The HEMOGLOBIN [1] was 13.67 G/DL, the “LEUKOCYTE COUNT” value [1] was 15.43 x10E3/uL and the LYMPHOCYTE [1] was 92.67%. The “MEAN CORPUSCULAR HEMOGLOBIN” value [1] was 25.53 pg, the “MEAN CORPUSCULAR HEMOGLOBIN CONCENTRATION” value [1] was 39.6 G/DL and the “MEAN CORPUSCULAR VOLUME” value [1] was 64.47 fL. For the same molecule, the MONOCYTE [1] was 0%, the NEUTROPHIL [1] was 7% and the “NUCLEATED RED BLOOD CELLS” value [1] was 0 /100WBC. The “PLATELET COUNT” value [1] was 1360.67 x10E3/uL, the “ALANINE AMINOTRANSFERASE” value [1] was 42 u/L and the ALBUMIN [1] was 4.17 G/DL. For the same molecule, the “ALKALINE PHOSPHATASE” value [1] was 395 u/L, the “ASPARTATE AMINOTRANSFERASE” value [1] was 70.33 u/L and the “BLOOD UREA NITROGEN” value [1] was 17 mg/dL. The “CARBON DIOXIDE” value [1] was 28 mmol/L, the CHLORIDE [1] was 102 MEQ/L and the CHOLESTEROL [1] was 50.33 mg/dL. The “CREATINE PHOSPHOKINASE” value [1] was 245.67 u/L, the CREATININE [1] was 0.19 mg/dL and the GLUCOSE [1] was 148 mg/dL. The “LACTATE DEHYDROGENASE” value [1] was 98 u/L, the LIPASE [1] was 8.67 u/L and the PHOSPHORUS [1] was 12.1 mg/dL. The POTASSIUM [1] was 6.46 MEQ/L, the SODIUM [1] was 145.6 MEQ/L and the “TOTAL BILIRUBIN” value [1] was 0.2 mg/dL. For the same molecule, the “TOTAL PROTEIN” value [1] was 6 G/DL, the “URIC ACID” value [1] was 1.33 mg/dL and the “ABSOLUTE BASOPHIL” value [2] was 0 CELLS/uL. For the same molecule, the “ABSOLUTE EOSINOPHIL” value [2] was 49.67 CELLS/uL, the “ABSOLUTE LYMPHOCYTE” value [2] was 15225.67 CELLS/uL and the “ABSOLUTE MONOCYTE” value [2] was 162.67 CELLS/uL. For the same molecule, the “ABSOLUTE SEGMENTED NEUTROPHIL” value [2] was 1162 CELLS/uL, the BASOPHIL [2] was 0% and the EOSINOPHIL [2] was 0.33%. The “ERYTHROCYTE COUNT” value [2] was 5.61 x10E6/uL, the HEMATOCRIT [2] was 35.4% and the HEMOGLOBIN [2] was 14 G/DL. For the same molecule, the “LEUKOCYTE COUNT” value [2] was 16.6 x10E3/uL, the LYMPHOCYTE [2] was 91.67% and the “MEAN CORPUSCULAR HEMOGLOBIN” value [2] was 24.97 pg. The “MEAN CORPUSCULAR HEMOGLOBIN CONCENTRATION” value [2] was 39.57 G/DL, the “MEAN CORPUSCULAR VOLUME” value [2] was 63.03 fL and the MONOCYTE [2] was 1%. The NEUTROPHIL [2] was 7%, the “NUCLEATED RED BLOOD CELLS” value [2] was 0.33 /100WBC and the “PLATELET COUNT” value [2] was 1234.33 x10E3/uL. For the same molecule, the “ALANINE AMINOTRANSFERASE” value [2] was 53 u/L, the ALBUMIN [2] was 4.17 G/DL and the “ALKALINE PHOSPHATASE” value [2] was 349.67 u/L. For the same molecule, the “ASPARTATE AMINOTRANSFERASE” value [2] was 86.67 u/L, the “BLOOD UREA NITROGEN” value [2] was 14.67 mg/dL and the “CARBON DIOXIDE” value [2] was 31 mmol/L. For the same molecule, the CHLORIDE [2] was 101.33 MEQ/L, the CHOLESTEROL [2] was 68 mg/dL and the “CREATINE PHOSPHOKINASE” value [2] was 268.67 u/L. For the same molecule, the CREATININE [2] was 0.18 mg/dL, the GLUCOSE [2] was 146 mg/dL and the “LACTATE DEHYDROGENASE” value [2] was 319.67 u/L. For the same molecule, the LIPASE [2] was 9.33 u/L, the PHOSPHORUS [2] was 12.6 mg/dL and the POTASSIUM [2] was 7.13 MEQ/L. The SODIUM [2] was 145.5 MEQ/L, the “TOTAL BILIRUBIN” value [2] was 0.17 mg/dL and the “TOTAL PROTEIN” value [2] was 5.6 G/DL. For the same molecule, the “URIC ACID” value [2] was 1.37 mg/dL, the “ABSOLUTE BASOPHIL” value [3] was 0 CELLS/uL and the “ABSOLUTE EOSINOPHIL” value [3] was 61.33 CELLS/uL. For the same molecule, the “ABSOLUTE LYMPHOCYTE” value [3] was 16689.33 CELLS/uL, the “ABSOLUTE MONOCYTE” value [3] was 42 CELLS/uL and the “ABSOLUTE SEGMENTED NEUTROPHIL” value [3] was 1274 CELLS/uL. The BASOPHIL [3] was 0%, the EOSINOPHIL [3] was 0.33% and the “ERYTHROCYTE COUNT” value [3] was 6.18 x10E6/uL. For the same molecule, the HEMATOCRIT [3] was 38.9%, the HEMOGLOBIN [3] was 15.3 G/DL and the “LEUKOCYTE COUNT” value [3] was 18.07 x10E3/uL. The LYMPHOCYTE [3] was 92.67%, the “MEAN CORPUSCULAR HEMOGLOBIN” value [3] was 24.8 pg and the “MEAN CORPUSCULAR HEMOGLOBIN CONCENTRATION” value [3] was 39.33 G/DL. For the same molecule, the “MEAN CORPUSCULAR VOLUME” value [3] was 63.03 fL, the MONOCYTE [3] was 0.33% and the NEUTROPHIL [3] was 6.67%. For the same molecule, the “NUCLEATED RED BLOOD CELLS” value [3] was 0 /100WBC, the “PLATELET COUNT” value [3] was 1282 x10E3/uL and the “ALANINE AMINOTRANSFERASE” value [3] was 57.33 u/L. For the same molecule, the ALBUMIN [3] was 4.27 G/DL, the “ALKALINE PHOSPHATASE” value [3] was 392.67 u/L and the “ASPARTATE AMINOTRANSFERASE” value [3] was 93.67 u/L. The “BLOOD UREA NITROGEN” value [3] was 15.67 mg/dL, the “CARBON DIOXIDE” value [3] was 21.33 mmol/L and the CHLORIDE [3] was 100.33 MEQ/L. For the same molecule, the CHOLESTEROL [3] was 69.67 mg/dL, the “CREATINE PHOSPHOKINASE” value [3] was 330.33 u/L and the CREATININE [3] was 0.23 mg/dL. For the same molecule, the GLUCOSE [3] was 154 mg/dL, the “LACTATE DEHYDROGENASE” value [3] was 426.67 u/L and the LIPASE [3] was 10 u/L. It also gave a PHOSPHORUS [3] of 12.5 mg/dL, a POTASSIUM [3] of 6.43 MEQ/L and an SODIUM [3] of 144.53 MEQ/L. For the same molecule, the “TOTAL BILIRUBIN” value [3] was 0.23 mg/dL, the “TOTAL PROTEIN” value [3] was 6.27 G/DL and the “URIC ACID” value [3] was 2.73 mg/dL.
